Series [1] in a line: in-vivo side effects of chemotherapy: change in weight of the animals. The text has this:
(§1) Wistar rats of approximately 200 g were used during this in-vivo experiment, at a rate of 8 animals per group. […] The animals are sacrificed 21 days after the injection of the chemotherapy agent. The weight and the different parameters of the blood formula will be tracked in these animals on days D+1, D+6 and D+14 and D+21 post-chemotherapy injection. The contents of endogenic antioxidants (glutathione=GSH) and the hepatocytic lipid peroxidation (MDA) levels will be evaluated on D+21.

Series [2] concerns red blood cells. Put plainly: in-vivo side effects of chemotherapy: change in red blood cells.
Source text: as §1

In series [3] the test system is white blood cells. Kind of series: in-vivo side effects of chemotherapy: change in white blood cells.
Source text: as §1

The subject of series [4] is plasmatic creatinine. Put plainly: in-vivo side effects of chemotherapy: plasmatic creatinine.
Source text: as §1

The test system of series [5] is plasmatic glutathione (GSH). Kind of series: in-vivo side effects of chemotherapy: plasmatic glutathione.
Source text: as §1
(§2) The chemotherapy agents also have an impact on the primary intracellular antioxidant: glutathione (GSH) and on oxidative damage through the formation of diene conjugates, which is a reflection of the lipid peroxidation of the cellular membranes (the MDA) on the plasmatic level. These two measurements are complementary since normally a correct level of GSH makes it possible to maintain a relatively low level of MDA.

For series [6], the system named is plasma MDA. Kind of series: in-vivo side effects of chemotherapy: plasma MDA.
Source text: as §1, §2

The subject of series [7] is Primary hepatocytes of rats. Put plainly: reversion of chemotherapy agent toxicity: hepatocyte cytolysis after propolis pretreatment, then tamoxifen. The series is classed as cell-based. The following applies: tamoxifen alone. How it is done: Primary hepatocytes of rats were sampled and inoculated into a 96-well plate. 24 hours after the inoculation, the hepatocytes were treated with different doses of propolis (Example 1) for 24 hours.
The percentage of hepatic cells that are cytolyzed after a pretreatment with different concentrations of propolis and then subjected to a cytotoxic concentration of tamoxifen (25 μM) was evaluated and presented in the table below: […]

Setting [8] is: chemotherapy agent alone, D + 1 post-injection.
Setting [9] is: chemotherapy agent alone, D + 6 post-injection.
Where [10] appears, read: chemotherapy agent alone, D + 14 post-injection.
Where [11] appears, read: chemotherapy agent alone, D + 21 post-injection.
Where [12] appears, read: chemotherapy agent alone, D − 5 (before treatment).
The mark [13] stands for this setting: chemotherapy agent alone, 21st day post-injection.
Setting [14] is: chemotherapy agent alone, 21st day.

Results on five compounds are retold here after patent US10532075B2, “Use of a particular extract of propolis for combating the side effects of chemotherapy” (POLLENERGIE, priority 2014, dated 2020).

Regarding `O=P1(N(CCCl)CCCl)NCCCO1` (stereo not shown) [Cyclophosphamide, cyclophosphamide], the “weight: Variation between D + 1 and D + 21” value in series [1] (chemotherapy agent alone) was −14.9. Besides, the “weight of the animals” value in series [1] (setting [8]) is 167.2; in series [1] (setting [9]), 157.7; in series [1] (setting [10]), 164; in series [1] (setting [11]), 152.3; in series [1] (setting [12]), 160.4. Besides, the “red blood cells: Variation between D + 1 and D + 21” value in series [2] (chemotherapy agent alone) was −46%. Besides, the “reduction in red blood cells” value in series [2] (setting [13]) stood at 45%. Further, the red blood cells came out at 5.94 in series [2] (setting [8]); 4.23 in series [2] (setting [9]); 3.80 in series [2] (setting [10]); 3.22 in series [2] (setting [11]); 6.51 in series [2] (setting [12]). The “white blood cells: Variation between D − 5 and D + 21” value in series [3] (chemotherapy agent alone) is on record as −49%. In addition, the white blood cells turned out to be 3.33 in series [3] (setting [8]); 2.96 in series [3] (setting [9]); 10.20 in series [3] (setting [10]); 3.19 in series [3] (setting [11]); 6.30 in series [3] (setting [12]). Moreover, in series [4] (chemotherapy agent alone), the “plasmatic creatinine: Variation between D − 5 and D + 21” value is “+59%”. Besides, the plasmatic creatinine was found to be 7.25 in series [4] (setting [8]), 10.14 in series [4] (setting [11]) and 6.38 in series [4] (setting [12]). Moreover, the “plasmatic glutathione: Variation between D − 5 and D + 21” value in series [5] (chemotherapy agent alone) is recorded as −10%. For the same compound, the “effect on the level of plasma GSH (in words)” value (“effect on the level” for short) in series [5] (setting [14]) was “a little less distinct”. Also, the figures for the plasmatic glutathione in series [5] (setting [11]) and in series [5] (setting [12]) were 23.81 and 26.39, respectively. Also, the “plasma MDA: Variation between D − 5 and D + 21” value in series [6] (chemotherapy agent alone) is “+48%”. Besides, the “plasma MDA” value is recorded as 79.10 in series [6] (setting [11]) and 43.78 in series [6] (setting [12]).
As to `COc1cccc2c1C(=O)c1c(O)c3c(c(O)c1C2=O)C[C@@](O)(C(=O)CO)C[C@@H]3O[C@H]1C[C@H](N)[C@@H](O)[C@H](C)O1` [Epirubicin, epirubicin], in series [1] (rat, in vivo), the “weight of the animals” value was 150.2; the “weight: Variation between D + 1 and D + 21” value was −0.9. In addition, in series [2] (rat, in vivo), the red blood cells was 6.73 10^6/µL; the “red blood cells: Variation between D + 1 and D + 21” value was −48%; the “reduction in red blood cells” value was found to be 48%. In addition, in series [3] (rat, in vivo), the white blood cells worked out at 6.79; the “white blood cells: Variation between D − 5 and D + 21” value is −46%. Besides, the “plasmatic creatinine: Variation between D − 5 and D + 21” value in series [4] (rat, in vivo) is “+60%”. Also, in series [5] (rat, in vivo), the “effect on the level” value is on record as “very distinct significant decrease in the level of plasma GSH”; the plasmatic glutathione amounted to 23.86; the “plasmatic glutathione: Variation between D − 5 and D + 21” value is on record as −46%. In series [6] (rat, in vivo), the “plasma MDA” value was determined as 46.61; the “plasma MDA: Variation between D − 5 and D + 21” value is listed as “+83%”.
For the compound `O=c1[nH]cc(F)c(=O)[nH]1` [Powder 5-FU, 5-FU], in series [1] (chemotherapy agent alone), the “weight: Variation between D + 1 and D + 21” value was −13.9. The “weight of the animals” value in series [1] (setting [8]) turned out to be 157.6; in series [1] (setting [9]) it was 153.7; in series [1] (setting [10]), 147.9; in series [1] (setting [11]) it was 143.7; in series [1] (setting [12]), 153.5. In series [2] (chemotherapy agent alone), the “red blood cells: Variation between D + 1 and D + 21” value is listed as −55%. Besides, in series [2] (setting [13]), the “reduction in red blood cells” value was found to be 55%. The red blood cells in series [2] (setting [8]) worked out at 6.56; in series [2] (setting [9]) it was 4.19; in series [2] (setting [10]), 3.05; in series [2] (setting [11]), 2.94; in series [2] (setting [12]), 6.51. In series [3] (chemotherapy agent alone), the “white blood cells: Variation between D − 5 and D + 21” value was −40%. Besides, the white blood cells is 3.91 in series [3] (setting [8]); 2.74 in series [3] (setting [9]); 10.82 in series [3] (setting [10]); 3.86 in series [3] (setting [11]); 6.49 in series [3] (setting [12]). In addition, the “plasmatic creatinine: Variation between D − 5 and D + 21” value in series [4] (chemotherapy agent alone) is listed as “+41%”. The plasmatic creatinine in series [4] (setting [8]) is on record as 9; in series [4] (setting [11]), 10.19; in series [4] (setting [12]), 7.25. The “plasmatic glutathione: Variation between D − 5 and D + 21” value in series [5] (chemotherapy agent alone) is −20%. Further, the “effect on the level” value in series [5] (setting [14]) was “very distinct significant decrease in the level of plasma GSH”. For the same compound, the figures for the plasmatic glutathione in series [5] (setting [11]) and in series [5] (setting [12]) were 17.65 and 22.14, respectively. The “plasma MDA: Variation between D − 5 and D + 21” value in series [6] (chemotherapy agent alone) was “+41%”. Besides, the “plasma MDA” value in series [6] (setting [11]) worked out at 62.85; in series [6] (setting [12]), 44.49.
Consider `CC/C(=C(\c1ccccc1)c1ccc(OCCN(C)C)cc1)c1ccccc1` [Tamoxifen, tamoxifen], for which the “cytolysis of hepatocytes (in words)” value in series [7] is given as “dose-dependent cytolysis of hepatocytes”.
On to `CC(=O)O[C@@]12CO[C@@H]1C[C@H](O)[C@@]1(C)C(=O)[C@H](O)C3=C(C)[C@@H](OC(=O)[C@H](O)[C@@H](NC(=O)OC(C)(C)C)c4ccccc4)C[C@@](O)([C@@H](OC(=O)c4ccccc4)[C@H]21)C3(C)C` [Taxotere, taxotere], for which, in series [1] (rat, in vivo), the “weight of the animals” value turned out to be 151.6; the “weight: Variation between D + 1 and D + 21” value is reported as “+18.6”. For the same compound, in series [2] (rat, in vivo), the red blood cells was 6.39 10^6/µL; the “red blood cells: Variation between D + 1 and D + 21” value is reported as −52%; the “reduction in red blood cells” value amounted to 52%. In addition, in series [3] (rat, in vivo), the white blood cells turned out to be 6.44; the “white blood cells: Variation between D − 5 and D + 21” value is on record as −51%. In addition, in series [4] (rat, in vivo), the plasmatic creatinine amounted to 7.60; the “plasmatic creatinine: Variation between D − 5 and D + 21” value was “+52%”. Also, in series [5] (rat, in vivo), the “effect on the level” value is listed as “very distinct significant decrease in the level of plasma GSH”; the plasmatic glutathione is given as 22.88; the “plasmatic glutathione: Variation between D − 5 and D + 21” value is listed as −26%. In series [6] (rat, in vivo), the “plasma MDA” value was determined as 45.90; the “plasma MDA: Variation between D − 5 and D + 21” value is given as “+88%”.
